Data: patent US4598146A, “Compound, arugomycin” (Kirin Beer Kabushiki Kaisha, priority 1983, dated 1986)

System: mice
Conditions: mouse, in vivo, ip

## COC(=O)C1c2cc3c(c(O)c2C(OC2CC(OC)C(OC4CC(O)C(OC5CC(OC)C(OC6CC(OC)C(OC(=O)C=CC(=O)O)C(C)O6)C(C)O5)C(C)O4)C(C)O2)CC1(C)O)C(=O)c1c(O)cc2c(c1C3=O)OC1OC2(C)C(OC2CC(O)C(OC3CC(C)([N+](=O)[O-])C(OC4CC(OC)C(O)C(C)O4)C(C)O3)C(C)O2)C(N(C)C)C1O (stereo not shown) [Arugomycin]
  LD50: 1.75 mg/kg
